Experimental data from the kinase profiling compilation of Christmann-Franck et al. (2016).

Assays:
Experiment in all cases: radiometric filter-binding kinase assay, Kinase HotSpot
Conditions in all cases: compound 0.5 µM; ATP 10 µM
[1] = molecular target: ALK (human) (UniProt Q9UM73)
[2] = molecular target: CAMK1 (human) (UniProt Q14012)
[3] = molecular target: CDK4 CCND1 (human) (UniProt P24385+P11802)
[4] = molecular target: CHUK (human) (UniProt O15111)
[5] = molecular target: CLK1 (human) (UniProt P49759)
[6] = molecular target: CLK2 (human) (UniProt P49760)
[7] = molecular target: CLK3 (human) (UniProt P49761)
[8] = molecular target: CSNK1G1 (human) (UniProt Q9HCP0)
[9] = molecular target: DYRK1A (human) (UniProt Q13627)
[10] = molecular target: DYRK4 (human) (UniProt Q9NR20)
[11] = molecular target: EPHB2 (human) (UniProt P29323)
[12] = molecular target: ERBB2 (human) (UniProt P04626)
[13] = molecular target: ERBB4 (human) (UniProt Q15303)
[14] = molecular target: HIPK1 (human) (UniProt Q86Z02)
[15] = molecular target: IRAK1 (human) (UniProt P51617)
[16] = molecular target: JAK2 JH1 JH2 (human) (UniProt O60674)
[17] = molecular target: JAK3 JH1 JH2 (human) (UniProt P52333)
[18] = molecular target: LRRK2 (human) (UniProt Q5S007)
[19] = molecular target: MAP2K1 (human) (UniProt Q02750)
[20] = molecular target: MAP3K11 (human) (UniProt Q16584)
[21] = molecular target: MAP3K7 TAB1 (human) (UniProt O43318+Q15750)
[22] = molecular target: MAPK1 (human) (UniProt P28482)
[23] = molecular target: MARK3 (human) (UniProt P27448)
[24] = molecular target: MKNK2 (human) (UniProt Q9HBH9)
[25] = molecular target: MLTK (human) (UniProt Q9NYL2)
[26] = molecular target: NEK4 (human) (UniProt P51957)
[27] = molecular target: NTRK2 (human) (UniProt Q16620)
[28] = molecular target: PAK2 (human) (UniProt Q13177)
[29] = molecular target: PAK3 (human) (UniProt O75914)
[30] = molecular target: PDPK1 (human) (UniProt O15530)
[31] = molecular target: PLK2 (human) (UniProt Q9NYY3)
[32] = molecular target: PRKD2 (human) (UniProt Q9BZL6)
[33] = molecular target: PRKX (human) (UniProt P51817)
[34] = molecular target: PTK6 (human) (UniProt Q13882)
[35] = molecular target: RPS6KA4 KD2 (human) (UniProt O75676)
[36] = molecular target: SRPK1 (human) (UniProt Q96SB4)
[37] = molecular target: STK39 (human) (UniProt Q9UEW8)
[38] = molecular target: TAOK2 (human) (UniProt Q9UL54)
[39] = molecular target: TBK1 (human) (UniProt Q9UHD2)
[40] = molecular target: TTK (human) (UniProt P33981)
[41] = molecular target: TXK (human) (UniProt P42681)
[42] = molecular target: VRK1 (human) (UniProt Q99986)
Sequence of VRK1 (human) (Q99986 whole entry, looked up): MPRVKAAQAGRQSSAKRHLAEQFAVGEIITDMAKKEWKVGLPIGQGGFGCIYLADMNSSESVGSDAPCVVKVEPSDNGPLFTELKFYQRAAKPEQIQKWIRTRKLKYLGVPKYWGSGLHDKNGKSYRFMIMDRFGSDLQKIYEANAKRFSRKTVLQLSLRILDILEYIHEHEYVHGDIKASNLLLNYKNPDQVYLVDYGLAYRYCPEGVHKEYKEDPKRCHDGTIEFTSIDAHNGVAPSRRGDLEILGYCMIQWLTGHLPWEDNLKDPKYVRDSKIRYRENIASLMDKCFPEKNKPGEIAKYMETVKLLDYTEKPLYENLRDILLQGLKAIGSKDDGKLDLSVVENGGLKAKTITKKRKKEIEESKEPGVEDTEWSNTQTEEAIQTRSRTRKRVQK

Sequence of PAK3 (human) (O75914 whole entry, looked up): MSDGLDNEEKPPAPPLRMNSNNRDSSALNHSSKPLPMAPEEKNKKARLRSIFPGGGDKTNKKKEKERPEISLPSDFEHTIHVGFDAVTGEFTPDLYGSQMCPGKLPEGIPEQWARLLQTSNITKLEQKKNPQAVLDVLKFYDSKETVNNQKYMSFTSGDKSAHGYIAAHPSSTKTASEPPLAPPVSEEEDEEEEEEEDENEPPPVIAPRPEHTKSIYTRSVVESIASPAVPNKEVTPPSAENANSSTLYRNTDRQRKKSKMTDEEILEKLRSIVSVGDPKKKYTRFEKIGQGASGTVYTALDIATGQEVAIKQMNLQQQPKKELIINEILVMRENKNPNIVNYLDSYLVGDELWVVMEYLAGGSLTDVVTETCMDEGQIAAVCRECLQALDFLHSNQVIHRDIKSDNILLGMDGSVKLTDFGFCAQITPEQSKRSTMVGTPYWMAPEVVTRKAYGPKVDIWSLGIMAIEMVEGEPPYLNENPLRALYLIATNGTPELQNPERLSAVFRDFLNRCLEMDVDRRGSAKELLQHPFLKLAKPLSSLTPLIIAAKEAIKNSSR
Sequence of CHUK (human) (O15111 whole entry, looked up): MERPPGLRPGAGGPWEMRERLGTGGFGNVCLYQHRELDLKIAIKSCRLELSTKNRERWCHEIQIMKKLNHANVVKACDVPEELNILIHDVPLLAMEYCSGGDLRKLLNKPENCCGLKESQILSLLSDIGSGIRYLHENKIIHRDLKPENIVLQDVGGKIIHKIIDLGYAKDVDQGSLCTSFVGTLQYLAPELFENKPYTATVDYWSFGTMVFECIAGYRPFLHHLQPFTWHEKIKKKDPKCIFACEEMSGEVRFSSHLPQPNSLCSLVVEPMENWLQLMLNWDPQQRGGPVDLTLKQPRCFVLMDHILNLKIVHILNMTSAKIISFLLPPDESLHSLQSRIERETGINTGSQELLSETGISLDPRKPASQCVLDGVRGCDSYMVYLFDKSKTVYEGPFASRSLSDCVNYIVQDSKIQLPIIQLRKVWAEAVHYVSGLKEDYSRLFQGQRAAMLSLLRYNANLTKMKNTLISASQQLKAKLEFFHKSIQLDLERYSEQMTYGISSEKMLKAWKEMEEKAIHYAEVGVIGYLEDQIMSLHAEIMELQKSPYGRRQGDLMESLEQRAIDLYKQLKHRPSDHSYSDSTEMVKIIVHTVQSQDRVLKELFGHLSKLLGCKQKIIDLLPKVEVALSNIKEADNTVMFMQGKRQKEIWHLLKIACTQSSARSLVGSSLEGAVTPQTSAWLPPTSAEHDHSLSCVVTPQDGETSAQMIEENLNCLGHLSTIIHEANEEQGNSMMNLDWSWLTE
Sequence of JAK2 JH1 JH2 (human) (O60674 whole entry, looked up): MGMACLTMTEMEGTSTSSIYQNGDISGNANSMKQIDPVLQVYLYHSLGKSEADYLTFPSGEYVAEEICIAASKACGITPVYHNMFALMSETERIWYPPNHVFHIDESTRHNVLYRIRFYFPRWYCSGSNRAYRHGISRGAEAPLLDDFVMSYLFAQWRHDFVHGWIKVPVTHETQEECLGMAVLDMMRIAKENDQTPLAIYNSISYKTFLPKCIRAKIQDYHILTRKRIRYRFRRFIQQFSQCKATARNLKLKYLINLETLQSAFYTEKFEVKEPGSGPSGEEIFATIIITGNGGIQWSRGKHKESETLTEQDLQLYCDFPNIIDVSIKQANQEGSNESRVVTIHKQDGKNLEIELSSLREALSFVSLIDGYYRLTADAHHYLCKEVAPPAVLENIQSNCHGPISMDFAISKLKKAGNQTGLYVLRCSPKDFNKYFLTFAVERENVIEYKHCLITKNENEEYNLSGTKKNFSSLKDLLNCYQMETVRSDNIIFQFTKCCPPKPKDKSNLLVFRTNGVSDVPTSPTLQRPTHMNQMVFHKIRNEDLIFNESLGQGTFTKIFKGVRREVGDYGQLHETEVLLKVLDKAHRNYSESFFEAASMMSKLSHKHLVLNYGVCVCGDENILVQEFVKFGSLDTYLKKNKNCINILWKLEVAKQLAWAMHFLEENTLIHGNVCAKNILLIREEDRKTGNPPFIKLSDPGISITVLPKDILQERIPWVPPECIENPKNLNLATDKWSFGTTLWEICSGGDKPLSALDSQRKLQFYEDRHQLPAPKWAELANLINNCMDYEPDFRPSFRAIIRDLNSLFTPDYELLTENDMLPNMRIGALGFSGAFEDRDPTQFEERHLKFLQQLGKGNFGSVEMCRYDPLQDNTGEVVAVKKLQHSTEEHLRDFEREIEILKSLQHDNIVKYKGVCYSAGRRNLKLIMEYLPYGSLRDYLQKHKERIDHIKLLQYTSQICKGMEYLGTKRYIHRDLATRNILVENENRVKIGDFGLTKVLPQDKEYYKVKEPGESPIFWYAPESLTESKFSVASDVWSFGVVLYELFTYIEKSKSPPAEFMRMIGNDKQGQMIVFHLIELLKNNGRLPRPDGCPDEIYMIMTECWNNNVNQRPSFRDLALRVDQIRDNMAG
Sequence of PTK6 (human) (Q13882 whole entry, looked up): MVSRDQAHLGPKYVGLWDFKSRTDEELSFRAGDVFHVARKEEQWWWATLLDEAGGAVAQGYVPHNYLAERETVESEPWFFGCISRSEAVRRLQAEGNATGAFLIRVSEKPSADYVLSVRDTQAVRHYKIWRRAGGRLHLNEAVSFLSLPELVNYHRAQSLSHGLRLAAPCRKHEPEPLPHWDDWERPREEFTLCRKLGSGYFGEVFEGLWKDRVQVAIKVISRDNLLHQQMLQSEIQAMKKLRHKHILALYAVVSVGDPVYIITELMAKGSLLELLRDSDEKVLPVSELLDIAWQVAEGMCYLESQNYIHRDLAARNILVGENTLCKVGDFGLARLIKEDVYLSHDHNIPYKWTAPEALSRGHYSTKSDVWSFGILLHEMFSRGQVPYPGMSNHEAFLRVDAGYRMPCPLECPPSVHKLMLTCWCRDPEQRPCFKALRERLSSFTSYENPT
Sequence of TBK1 (human) (Q9UHD2 whole entry, looked up): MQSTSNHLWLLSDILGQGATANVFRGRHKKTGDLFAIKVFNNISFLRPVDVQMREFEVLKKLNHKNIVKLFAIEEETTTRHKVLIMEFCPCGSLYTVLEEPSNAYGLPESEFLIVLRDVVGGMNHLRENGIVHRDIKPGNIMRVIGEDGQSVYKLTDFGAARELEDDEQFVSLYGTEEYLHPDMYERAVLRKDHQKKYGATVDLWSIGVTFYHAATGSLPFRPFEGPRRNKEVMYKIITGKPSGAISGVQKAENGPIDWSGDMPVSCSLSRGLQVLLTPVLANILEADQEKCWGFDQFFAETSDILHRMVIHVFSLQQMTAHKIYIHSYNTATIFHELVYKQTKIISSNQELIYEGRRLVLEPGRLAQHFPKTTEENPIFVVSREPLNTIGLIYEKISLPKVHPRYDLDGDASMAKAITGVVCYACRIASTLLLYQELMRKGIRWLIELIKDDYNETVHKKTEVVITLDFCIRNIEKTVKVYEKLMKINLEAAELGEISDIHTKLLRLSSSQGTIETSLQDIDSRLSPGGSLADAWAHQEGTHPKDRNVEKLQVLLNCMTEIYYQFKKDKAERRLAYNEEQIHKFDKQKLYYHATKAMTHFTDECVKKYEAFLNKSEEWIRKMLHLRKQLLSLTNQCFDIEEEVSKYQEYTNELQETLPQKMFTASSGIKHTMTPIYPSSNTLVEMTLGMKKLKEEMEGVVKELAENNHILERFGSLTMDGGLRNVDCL
Sequence of MAP3K11 (human) (Q16584 whole entry, looked up): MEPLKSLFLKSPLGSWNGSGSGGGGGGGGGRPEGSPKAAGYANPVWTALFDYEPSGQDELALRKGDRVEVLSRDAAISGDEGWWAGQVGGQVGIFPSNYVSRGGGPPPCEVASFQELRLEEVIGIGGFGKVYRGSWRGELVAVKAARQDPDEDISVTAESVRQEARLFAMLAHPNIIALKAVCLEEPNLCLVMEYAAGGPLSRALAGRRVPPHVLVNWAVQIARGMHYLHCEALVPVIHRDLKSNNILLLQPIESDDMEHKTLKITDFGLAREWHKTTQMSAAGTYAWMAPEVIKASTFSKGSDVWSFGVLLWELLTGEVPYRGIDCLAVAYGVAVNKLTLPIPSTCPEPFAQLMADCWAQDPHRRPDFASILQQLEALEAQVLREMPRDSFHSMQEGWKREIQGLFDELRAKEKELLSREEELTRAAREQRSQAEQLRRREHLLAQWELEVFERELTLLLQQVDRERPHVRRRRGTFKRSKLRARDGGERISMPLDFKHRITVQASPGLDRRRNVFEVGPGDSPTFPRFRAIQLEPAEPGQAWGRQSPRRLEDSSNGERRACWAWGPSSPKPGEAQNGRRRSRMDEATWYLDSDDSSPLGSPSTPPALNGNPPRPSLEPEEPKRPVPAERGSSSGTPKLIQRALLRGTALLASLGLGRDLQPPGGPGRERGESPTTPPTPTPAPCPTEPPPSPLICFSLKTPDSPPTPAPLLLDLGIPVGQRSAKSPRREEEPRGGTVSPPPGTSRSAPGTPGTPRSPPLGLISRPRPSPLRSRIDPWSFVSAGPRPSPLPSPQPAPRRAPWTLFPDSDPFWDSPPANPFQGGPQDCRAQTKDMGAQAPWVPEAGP

For `O=c1cc(N2CCOCC2)oc2c1ccc1ccccc12`, the residual activity [1] was 104%, the residual activity [2] was 111% and the residual activity [3] was 95.6%. It also gave a residual activity [4] of 93.4%, a residual activity [5] of 98.3% and a residual activity [6] of 101%. It also gave a residual activity [7] of 81.1%, a residual activity [8] of 101% and a residual activity [9] of 79%. The residual activity [10] was 91.9%, the residual activity [11] was 85% and the residual activity [12] was 105%. For the same molecule, the residual activity [13] was 101%, the residual activity [14] was 102% and the residual activity [15] was 112%. It also gave a residual activity [16] of 94.9%, a residual activity [17] of 103% and a residual activity [18] of 96.9%. For the same molecule, the residual activity [19] was 99.3%, the residual activity [20] was 99.2% and the residual activity [21] was 98.3%. For the same molecule, the residual activity [22] was 104%, the residual activity [23] was 110% and the residual activity [24] was 88.5%. It also gave a residual activity [25] of 98%, a residual activity [26] of 97.4% and a residual activity [27] of 94%. The residual activity [28] was 103%, the residual activity [29] was 102% and the residual activity [30] was 109%. The residual activity [31] was 106%, the residual activity [32] was 101% and the residual activity [33] was 96.6%. The residual activity [34] was 101%, the residual activity [35] was 99.4% and the residual activity [36] was 90.9%. The residual activity [37] was 95.7%, the residual activity [38] was 108% and the residual activity [39] was 102%. For the same molecule, the residual activity [40] was 103%, the residual activity [41] was 98.9% and the residual activity [42] was 93.3%.

In the case of `N#CC(C#N)=C(N)/C(C#N)=C/c1ccc(O)cc1`, the residual activity [1] is reported as 109%, the residual activity [2] is reported as 97.2% and the residual activity [3] is reported as 100%. The residual activity [4] was 94%, the residual activity [5] was 96.5% and the residual activity [6] was 100%. It also gave a residual activity [7] of 100%, a residual activity [8] of 93.4% and a residual activity [9] of 95.9%. It also gave a residual activity [10] of 107%, a residual activity [11] of 97.1% and a residual activity [12] of 90.1%. It also gave a residual activity [13] of 92.7%, a residual activity [14] of 103% and a residual activity [15] of 123%. It also gave a residual activity [16] of 102%, a residual activity [17] of 102% and a residual activity [18] of 97.1%. The residual activity [19] was 93.7%, the residual activity [20] was 94.8% and the residual activity [21] was 94.8%. It also gave a residual activity [22] of 101%, a residual activity [23] of 96.5% and a residual activity [24] of 79.1%. For the same molecule, the residual activity [25] was 95.7%, the residual activity [26] was 93.3% and the residual activity [27] was 95.4%. For the same molecule, the residual activity [28] was 86%, the residual activity [29] was 98.4% and the residual activity [30] was 99.4%. It also gave a residual activity [31] of 99.9%, a residual activity [32] of 100% and a residual activity [33] of 93.7%. It also gave a residual activity [34] of 84.9%, a residual activity [35] of 99.7% and a residual activity [36] of 100%. For the same molecule, the residual activity [37] was 90.3%, the residual activity [38] was 97.3% and the residual activity [39] was 91.1%. It also gave a residual activity [40] of 94.4%, a residual activity [41] of 100% and a residual activity [42] of 103%.
